Here are results for 2 compounds from patent US20250085284A1, “PRODUCTS AND USES THEREOF FOR PREDICTING THE SENSITIVITY OF A SUBJECT TO CANCER IMMUNOTHERAPY INVOLVING AN ANTI-PD(L)1 AND AN ANTI-ANGIOGENIC AGENT, AND FOR SELECTING OPTIMIZED THERAPY” (INSTITUT GUSTAVE ROUSSY, priority 2023, published 2025).

In series [1] the test system is advanced mesothelioma. Conditions: monotherapy; n=118; cited from earlier work.
The subject of series [2] is plasma cytokines, chemokines and soluble angiogenic factors. Description: Plasma cytokine, chemokine and soluble factor titration on treatment (D-7, C1D1, C1D8). The class given is in vivo, human. The procedure: Frozen plasma and frozen tumor biopsy supernatants were subsequently thawed, centrifuged for 15 min at 1,000 g, then titrated using Bio-Plex Pro™ Human Chemokine Panel (40-Plex, ref. 171AK99MR2, Bio-rad), Angiogenesis Panel 1 (human) (ref. K151P3S-1, Meso Scale Discovery), Human PD-1 and PD-L1 antibody sets (ref. F214A-3 & F214C-3, Meso Scale Discovery) following manufacturer's instructions. Each sample was run twice with the average value of the doublet taken as the result. Acquisitions were done on Bio-Plex 200™ System and MESO™ QuickPlex SQ120 readers. Raw data from Meso Scale Discovery's kit were analyzed with MSD's Discovery Workbench 4.0.
Inventors took advantage of the one-week lead-in nintedanib monotherapy prior to the pembrolizumab introduction to analyze the respective effects of the two drugs. Sequential blood sampling was performed at baseline and on-treatment in order to identify selective phannacodynamic markers of Nintedanib and Pembrolizumab that occurred upon treatment in all patients and independently from the treatment efficacy. Plasma was obtained from blood draws collected at baseline (D-7), one week after the nintedanib monotherapy lead-in (C1D1) and one week after the addition of pembrolizumab (C1D8). […] CCL15 and CXCL10 were also decreasing in all patients upon Nintedanib monotherapy but this decrease was only significant for patients with DCB (FIG. 10A).

Series [3] in a line: PEMBIB trial, mesothelioma expansion cohort: safety and tolerability (CTCAE Version 4.03). The arrangement: species or system human. Conditions: in vivo.
Where [4] appears, read: one week after initiation of pembrolizumab, DCB and No DCB.
Where [5] appears, read: upon pembrolizumab addition (C1D1 to C1D8), only significant in No DCB.
The mark [6] stands for this setting: D-7 vs C1D1, one-week nintedanib monotherapy, patients with both DCB and No DCB.
[7] abbreviates: nintedanib monotherapy week, all patients, only significant for DCB.

For the compound pembrolizumab, the “objective response rate (ORR; BORR per RECIST1.1)” value in series [1] is listed as 8%. In series [2] (C1D8, one week after addition of pembrolizumab to nintedanib, both DCB and No DCB), the “circulating soluble PD-1 (sPD1) median level” value is recorded as “above 10 ng/mL”. In addition, the “plasma CCL19 level” value in series [2] (after one week of combination with pembrolizumab, all patients) is “increase”. Also, the “circulating soluble PD-L1 (sPDL1) level” value in series [2] (one week after addition of pembrolizumab, all patients) is “significantly increased”. In series [2] (setting [4]), the CXCL9 serum level entry is “significant rise”, the CXCL10 serum level result was “significant rise”, the CXCL11 serum level entry is “significant rise” and the CXCL13 serum level result is reported as “significant rise”. For the same compound, in series [2] (setting [5]), the “plasma CCL3 level” value is recorded as “increased”, the “plasma CCL8 level” value was “increased”, the “plasma CCL17 level” value is listed as “increased” and the “plasma CCL23 level” value was “increased”. Besides, the “plasma CXCL2 level” value in series [2] (setting [5]) is “decreased”.

As to `COC(=O)c1ccc2c(c1)NC(=O)/C2=C(\Nc1ccc(N(C)C(=O)CN2CCN(C)CC2)cc1)c1ccccc1` [nintedanib], in series [3], the “tolerability of nintedanib 150 mg BID versus 200 mg BID” value is given as “better tolerated”. Also, in series [2] (setting [6]), the “blood Angiopoietin-2 level” value is given as “significantly decreased”, the “blood CCL21 level” value is reported as “significantly decreased” and the “blood CCL23 level” value is on record as “significantly decreased”. In addition, the “plasma CCL8 level” value in series [2] (first week of nintedanib, patients with DCB) is recorded as “tended to decrease”. For the same compound, the “plasma CCL8 level” value in series [2] (first week of nintedanib, patients with No DCB) is recorded as “significantly increased”. Also, in series [2] (setting [7]), the “plasma CCL15 level” value is on record as “decreasing” and the “plasma CXCL10 level” value is “decreasing”.
